Measured values from US8252781B2, “1,2-diazetidin-3-one derivatives and drugs containing same” (Kowa Company, Ltd., priority 2008, dated 2012).

Tests used:
Assay type in all cases: biochemical
human 11β-HSD2 = target: T1, human 11β-HSD2 (Homo sapiens, UniProt P80365); experiment: Enzyme inhibitory activity, human 11β-HSD2 (lysate of stably expressing HEK293 cells, cortisol by competitive ELISA); settings: Table 1; human 11β-HSD2, cell lysate, 37° C. for 1 hour; read-out: h HSD2 in vitro assay (IC50 uM)
T1 construct: The obtained PCR products of about 0.9 kbp, 1.2 kbp, and 0.9 kbp were subcloned into an expression vector pcDNA3.1+/Zeo; expressed in transfected cells
T1 sequence (P80365 1-405): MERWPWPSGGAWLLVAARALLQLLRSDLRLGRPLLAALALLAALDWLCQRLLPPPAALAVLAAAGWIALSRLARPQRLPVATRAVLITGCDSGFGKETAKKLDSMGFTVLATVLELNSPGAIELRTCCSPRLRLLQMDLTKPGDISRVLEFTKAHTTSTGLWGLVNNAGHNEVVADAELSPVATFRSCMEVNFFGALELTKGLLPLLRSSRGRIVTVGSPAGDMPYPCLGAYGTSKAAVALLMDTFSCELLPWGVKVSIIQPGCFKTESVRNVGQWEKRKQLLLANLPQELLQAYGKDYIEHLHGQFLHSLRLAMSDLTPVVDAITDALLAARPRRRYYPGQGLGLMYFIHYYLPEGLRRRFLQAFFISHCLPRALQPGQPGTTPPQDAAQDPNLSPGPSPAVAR
Description: 1. Human 11β-HSD1-, Human 11β-HSD2- and Mouse 11β-HSD1-Gene Clonings and Establishment of Stably Expressing Cells
Human 11β-HSD1-, human 11β-HSD2-, and mouse 11β-HSD1-gene clonings were conducted using as a template a reverse transcription product of human-liver RNA, human-kidney RNA (CELL APPLICATIONS), and mouse-kidney RNA respectively, by means of PCR cloning with reference to nucleotide sequences of Genbank Accession Nos. NM_005525, NM_000196, and NM_008288. The obtained PCR products of about 0.9 kbp, 1.2 kbp, and 0.9 kbp were subcloned into an expression vector pcDNA3.1+/Zeo (Invitrogen).
Human 11β-HSD1- and human 11β-HSD2-expressing vectors were transfected into human kidney-derived cell line, HEK293 cells, using a transfection reagent, jet PEI (Funakoshi). Mouse 11β-HSD1 was transfected to Chinese hamster ovary-derived cell line, CHO-K1 cells. Selection was conducted with 200-400 μg/mL of zeocine (Invitrogen) to provide stably expressing-cell clones. The stably expressing cells were suspended in buffer solution A (20 mmol/L Tris-HCl, pH 7.4, 250 mmol/L sucrose, 1 mmol/L EGTA, 1 mmol/L EDTA, 1 mmol/L MgCl2), sonicated, and then stored at −80° C.
2. Assay of Enzyme Inhibitory Activity
An enzymatic reaction was conducted using a polystyrene 96-well plate. Each well was added with 1 μL of a test agent dissolved in DMSO and then diluted (0.003 to 3 mmol/L), and further added with 10 μL of cell lysate diluted to a concentration of 0.1 mg/mL to 0.4 mg/mL. Next, 90 μL of buffer solution A containing substrate (100 nmol/L cortisone or cortisol) and coenzyme (400 μmol/L NADPH or NAD+) was added and the mixture was incubated at 37° C. for 1 hour. The enzymatic reaction was stopped by treating at 95° C. for 3 minutes. Cortisol that was present in the reaction solution was determined by a competitive ELISA shown below.
Anti-rabbit IgG antibody (Chemi-con) diluted to 2 μg/mL with carbonate buffer solution (pH 9.6) was added in 100 μL each to a 96-well immuno plate (Nunc) and immobilized by an incubation at 4° C. overnight. 50 μL of enzymatic reaction solution was put onto the plates, and further, anti-cortisol antibody (Cosmo Bio) and HRP-labeled cortisol (Cosmo Bio), diluted with buffer solution B (25 mmol/L Tris-HCl pH 7.4, 137 mmol/L NaCl, 2.68 mmol/L KCl), were added in 50 μL respectively and incubated at 4° C. overnight. After washed three times with buffer solution B containing 0.05% Tween 20, the plates were allowed to develop color by adding 100 μL of color reagent, TMB (Moss). The color reaction was stopped by 25 μL of 1 mol/L sulfuric acid and the absorbance was determined at 450 nm with a microplate reader (Molecular Device, VersaMax).
The values of human 11β-HSD1, human 11β-HSD2, and mouse 11β-HSD1 activities were subtracted from 100, and the resultant values were regarded as the respective 11β-HSD inhibition rates of example compounds. […] The comparison of human 11β-HSD1 and human 11β-HSD2 inhibiting activities is shown in Table 1, and the comparison of human 11β-HSD1 and mouse 11β-HSD1 inhibiting activities is shown in Table 2.

mouse 11β-HSD1 = target: T2, mouse 11β-HSD1 (Mus musculus, UniProt P50172); experiment: Enzyme inhibitory activity, mouse 11β-HSD1 (lysate of stably expressing CHO-K1 cells, cortisol by competitive ELISA); settings: Table 2; mouse 11β-HSD1, cell lysate, 37° C. for 1 hour; read-out: m HSD1 in vitro assay (IC50 uM)
T2 construct: The obtained PCR products of about 0.9 kbp, 1.2 kbp, and 0.9 kbp were subcloned into an expression vector pcDNA3.1+/Zeo; expressed in transfected cells
Method in brief: (§1)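 Sonicated lysates of stably transfected cells (diluted to 0.1–0.4 mg/mL before addition) reacted for 1 h at 37 °C in pH 7.4 Tris/sucrose/EGTA/EDTA/MgCl2 buffer with 100 nmol/L cortisone or cortisol and 400 μmol/L NADPH or NAD+, then were heat-stopped at 95 °C. Inhibition rate = 100 minus residual activity.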

human 11β-HSD1 = target: T3, human 11β-HSD1 (Homo sapiens, UniProt P28845); experiment: Enzyme inhibitory activity, human 11β-HSD1 (lysate of stably expressing HEK293 cells, cortisol by competitive ELISA); settings: Table 1; human 11β-HSD1, cell lysate, 37° C. for 1 hour; read-out: h HSD1 in vitro assay (IC50 uM)
T3 construct: The obtained PCR products of about 0.9 kbp, 1.2 kbp, and 0.9 kbp were subcloned into an expression vector pcDNA3.1+/Zeo; expressed in transfected cells
Method in brief: as §1

T2 sequence (P50172 whole entry): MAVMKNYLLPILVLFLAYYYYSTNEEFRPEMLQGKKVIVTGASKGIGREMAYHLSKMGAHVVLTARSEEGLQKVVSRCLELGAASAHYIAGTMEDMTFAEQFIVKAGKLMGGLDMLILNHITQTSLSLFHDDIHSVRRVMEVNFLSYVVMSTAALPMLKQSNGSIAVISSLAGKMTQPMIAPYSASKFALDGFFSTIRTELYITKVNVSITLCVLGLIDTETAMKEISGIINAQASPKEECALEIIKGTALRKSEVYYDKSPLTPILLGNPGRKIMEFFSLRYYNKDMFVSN
T3 sequence (P28845 whole entry): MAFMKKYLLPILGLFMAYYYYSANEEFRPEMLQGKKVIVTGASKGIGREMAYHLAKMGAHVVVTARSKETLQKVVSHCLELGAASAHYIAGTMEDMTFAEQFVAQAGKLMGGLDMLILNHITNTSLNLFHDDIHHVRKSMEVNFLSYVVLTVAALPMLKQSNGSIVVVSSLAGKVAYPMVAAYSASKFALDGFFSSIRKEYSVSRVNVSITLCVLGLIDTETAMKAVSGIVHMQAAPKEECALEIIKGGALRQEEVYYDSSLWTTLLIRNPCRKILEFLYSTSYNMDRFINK

IC50 (human 11β-HSD2) [µM]	IC50 (mouse 11β-HSD1) [µM]	IC50 (human 11β-HSD1) [µM]	SMILES
3 to 30	0.15	0.013	CC1(C)C(=O)N([C@H]2C3CC4CC2C[C@](Cl)(C4)C3)N1c1ccccc1O [Example 253, trans-2-(5-chloroadamantan-2-yl)-1-(2-hydroxyphenyl)-4,4-dimethyl-1,2-diazetidin-3-one]
> 30	0.9	0.05	CC1(C)C(=O)N([C@H]2C3CC4CC2C[C@@](C(=O)O)(C4)C3)N1c1cccc2ccccc12 [Example 272, cis-4-[2-(naphthalen-1-yl)-3,3-dimethyl-4-oxo-1,2-diazetidin-1-yl]adamantane-1-carboxylic acid]
